Measured values from patent publication US12636368B2, “Ionizable lipids for nucleic acid delivery” (Global Life Sciences Solutions Canada ULC, priority 2019, dated 2026).

Columns and labels:
[1] = LNP size and PDI by dynamic light scattering; type: physicochemical
Procedure, shortened: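 Hydrodynamic diameter measured by DLS with a 633 nm He/Ne laser in backscatter mode (173°), averaging 10 runs of two cycles per sample. Size reported as Z-average (harmonic intensity-averaged diameter), with polydispersity given as PDI.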

[2] = Nucleic acid encapsulation efficiency by RiboGreen assay; type: physicochemical
[3] = system: C56BL/6 mice; assay: hEPO expression in mice after i.v. EPO mRNA LNPs; type: in vivo; details: for hEPO protein level compared with MC3: FIG. 9, 5-moU EPO mRNA, LM02, N/P 6, 0.5 mg/Kg, 6 h; for protein expression in vivo compared with MC3: summary, Table 7 and Figures
Procedure: C56BL/6 mice were administered i.v doses of 0.5, 1 or 3 mg/Kg of recombinant human EPO-encoded mRNA LNPs containing ionizable lipids MC3, PNI 76, PNI 121 and PNI 127 using the LM02 composition at N/P 6; hEPO protein was measured using Quantikine® IVD® ELISA Human Erythropoietin Immunoassay protocol. Results for the 0.5 mg/Kg dosage are shown in the scatter plot of FIG. 7. Results for the 1 and 3 mg/Kg doses are shown in FIG. 8 as scatter plots of hEPO expression levels at 6 h (left) and 24 h (right).
In another study, 5-moU EPO mRNA encapsulated in LM02 LNP at an N/P ratio of 6 and a dose of 0.5 mg/Kg comprising a variety of […] ionizable lipids (PNI 336, PNI 534, PNI 535, PNI 342, PNI 321, PNI 532, PNI 538, PNI 541, PNI 325, PNI 328, PNI 329, PNI 539, PNI 540, PNI 127); along with MC3 as a control, were administered. hEPO protein was measured using ProteinSimple® Ella platform, and the rhEPO microfluidic cartridges provided by the manufacturer.
Blood from mice treated with hEPO mRNA LNP was analyzed using an automated ELISA platform “ELLA”, using Simplex™ antibody panel cartridges. Human-specific EPO and mouse-specific IL-5, IL-6, TNF-α, and IFN-γ were measured (reagents from Bio-techne). Briefly, 50 μL of sample reagent (diluted biological sample, quality control, or calibration point sample) were aliquoted into each sample inlet, and 1 mL of wash buffer was added into corresponding inlets on the cartridge. All immunoassay operations (including prime system, flow samples and split them into channels, sample incubation, wash, rehydrate and flow secondary antibody, wash, rehydrate and flow streptavidin dye conjugate, incubate, wash, scan) were processed automatically. Raw signal levels (relative fluorescence units, RFUs), mean signal values, standard deviation, and coefficient of variance (CV) for each glass nanoReactor (GNR) value are provided. RFU values are automatically backfit by the ELLA to produce an analyte concentration per analyte/sample using the manufacturer given calibration methodology.
Reagents were acquired from Quantikine, Minneapolis, MN. The assay was performed as directed on the Quantikine® IVD® ELISA Human Erythropoietin Immunoassay protocol REF DEP00 Package Insert. Briefly; Sera samples of 6 h, and/or 24 h post intravenous administration of 0.5, 1 or 3 mg/kg dose of EPO-encoded mRNA were analyzed for EPO expression analysis, and expressed as mIU/mL. To an EPO antibody pre-coated 96-well microplate, provided by the manufacturer, standards, appropriately diluted sera, and the Horseradish peroxidase (HRP)-conjugated rabbit anti-EPO polyclonal antibody and TMB (Tetramethylbenzidine) as the substrate were added and incubated for 20 minutes. Stop solution (Sulfuric Acid) was added to the wells and the plate was read at 450 nm and the concentration of EPO was calculated. The amount of colour generated is directly proportional to the amount of the conjugate bound to EPO antibody, which in turn is directly proportional to the amount of EPO in the specimen or standard. A standard curve was generated by plotting absorbance versus concentration of provided standards. Quantikine® Human Serum Controls (CEP 01, CEP 03) were used for internal controls.

[4] = Table 6, GFP-encoded LNPs, CT10, N/P 8
[5] = Table 7, EPO mRNA LNPs, LM02, N/P 6

SMILES	Diameter (Z. ave, nm) [1, 4] [nm]	Polydispersity Index (PDI) [1, 4]	Diameter (Z. ave, nm) [1, 5] [nm]	Polydispersity Index (PDI) [1, 5]	Encapsulation Efficiency (%) [2, 4] [%]	Encapsulation Efficiency (%) [2, 5] [%]	hEPO protein level compared with MC3 [3]	protein expression in vivo compared with MC3 [3]
CCCCC/C=C\C/C=C\CCCCCCCC(=O)O[C@@H]1[C@@H](OC(=O)CCCCCCC/C=C\C/C=C\CCCCC)CO[C@@H]1COC(=O)C1(C)CCN(C)C1 (mixture of isomers) [PNI 329]	74.1	0.11	70.9	0.04	93.2	94.4	compare well to MC3	equivalent to MC3
CCCCC/C=C\C/C=C\CCCCCCCC(=O)O[C@@H]1[C@@H](OC(=O)CCCCCCC/C=C\C/C=C\CCCCC)CO[C@@H]1COC(=O)CCCN(C)C (racemic) [PNI 121]	100.7	0.16	93.5	0.10	87.3	98.8	–	equivalent to MC3
CCCCC/C=C\C/C=C\CCCCCCCC(=O)O[C@@H]1[C@@H](OC(=O)CCCCCCC/C=C\C/C=C\CCCCC)CO[C@@H]1COC(=O)C1CCN(C)C1 (mixture of isomers) [PNI 328]	92.6	0.16	66.9	0.02	92.5	96.2	compare well to MC3	equivalent to MC3
CCCCC/C=C\C/C=C\CCCCCCCC(=O)O[C@@H]1[C@@H](OC(=O)CCCCCCC/C=C\C/C=C\CCCCC)CO[C@@H]1COC(=O)CCCN1CCCC1 (racemic) [PNI 539]	–	–	86.9	0.13	–	88.2	compare well to MC3	–
